Laboratory results from patent US12581252B2, “Substituted pyrrolo[3,4-b]pyridines as PI3K-α inhibitors” (Relay Therapeutics, Inc., priority 2020, dated 2026).

Molecular target: H1047R PIK3CA enzyme (Homo sapiens, UniProt P42336, H1047R)
Assay: ADP-Glo Biochemical PIK3CA Kinase Assay
Procedure: Compounds to be assayed were plated in 16 doses of 1:2 serial dilutions (20 nL volume each well) on a 1536-well plate, and the plate warmed to room temperature. […] To the well was added 1 μL of 200 μM ATP and 20 μM of diC8-PIP2 in Substrate Assay Buffer (50 mM HEPES pH7.4, 50 mM NaCl, 5 mM DTT and 0.03% CHAPS) to start the reaction, and the plate was shaken for 10 seconds, then spun briefly at 1500 rpm, and then incubated for 60 minutes at room temperature. The reaction was stopped by adding 2 μL of ADP-Glo reagent (Promega), and spinning briefly at 1500 rpm, and then incubating for 40 minutes. ADP-Glo Detection reagent (Promega) was added and the plate spun briefly at 1500 rpm, then incubated for 30 minutes.

Chain of H1047R PIK3CA enzyme (P42336 whole entry H1047R): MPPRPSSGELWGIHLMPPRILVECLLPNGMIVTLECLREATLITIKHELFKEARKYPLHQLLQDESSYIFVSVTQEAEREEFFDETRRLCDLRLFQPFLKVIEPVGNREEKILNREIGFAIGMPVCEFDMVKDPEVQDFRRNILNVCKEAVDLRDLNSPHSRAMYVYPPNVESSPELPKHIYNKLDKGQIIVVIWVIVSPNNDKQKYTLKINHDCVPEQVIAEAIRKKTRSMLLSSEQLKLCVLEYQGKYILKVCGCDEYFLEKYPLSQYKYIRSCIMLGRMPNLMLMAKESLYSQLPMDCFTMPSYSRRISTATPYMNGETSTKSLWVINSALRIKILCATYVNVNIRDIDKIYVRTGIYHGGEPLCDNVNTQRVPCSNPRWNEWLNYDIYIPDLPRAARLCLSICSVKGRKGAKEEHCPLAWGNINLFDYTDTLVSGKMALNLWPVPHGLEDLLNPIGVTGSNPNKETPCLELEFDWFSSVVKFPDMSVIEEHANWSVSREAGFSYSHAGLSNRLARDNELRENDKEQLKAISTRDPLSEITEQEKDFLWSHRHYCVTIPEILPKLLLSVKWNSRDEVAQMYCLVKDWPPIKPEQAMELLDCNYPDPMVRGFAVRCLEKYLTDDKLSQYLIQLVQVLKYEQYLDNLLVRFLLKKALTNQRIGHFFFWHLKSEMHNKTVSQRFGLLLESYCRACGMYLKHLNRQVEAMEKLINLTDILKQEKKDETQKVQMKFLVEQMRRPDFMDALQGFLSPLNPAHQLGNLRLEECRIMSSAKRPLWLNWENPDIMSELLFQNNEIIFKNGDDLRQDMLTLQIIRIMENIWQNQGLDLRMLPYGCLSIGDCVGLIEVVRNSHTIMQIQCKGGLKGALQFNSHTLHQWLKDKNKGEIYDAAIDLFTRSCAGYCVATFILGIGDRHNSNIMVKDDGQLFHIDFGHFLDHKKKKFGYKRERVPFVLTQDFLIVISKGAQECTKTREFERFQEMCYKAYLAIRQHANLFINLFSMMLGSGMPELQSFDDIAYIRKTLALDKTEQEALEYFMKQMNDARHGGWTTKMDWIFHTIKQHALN
Chain of H1047R PIK3CA enzyme (P27986 whole entry partner): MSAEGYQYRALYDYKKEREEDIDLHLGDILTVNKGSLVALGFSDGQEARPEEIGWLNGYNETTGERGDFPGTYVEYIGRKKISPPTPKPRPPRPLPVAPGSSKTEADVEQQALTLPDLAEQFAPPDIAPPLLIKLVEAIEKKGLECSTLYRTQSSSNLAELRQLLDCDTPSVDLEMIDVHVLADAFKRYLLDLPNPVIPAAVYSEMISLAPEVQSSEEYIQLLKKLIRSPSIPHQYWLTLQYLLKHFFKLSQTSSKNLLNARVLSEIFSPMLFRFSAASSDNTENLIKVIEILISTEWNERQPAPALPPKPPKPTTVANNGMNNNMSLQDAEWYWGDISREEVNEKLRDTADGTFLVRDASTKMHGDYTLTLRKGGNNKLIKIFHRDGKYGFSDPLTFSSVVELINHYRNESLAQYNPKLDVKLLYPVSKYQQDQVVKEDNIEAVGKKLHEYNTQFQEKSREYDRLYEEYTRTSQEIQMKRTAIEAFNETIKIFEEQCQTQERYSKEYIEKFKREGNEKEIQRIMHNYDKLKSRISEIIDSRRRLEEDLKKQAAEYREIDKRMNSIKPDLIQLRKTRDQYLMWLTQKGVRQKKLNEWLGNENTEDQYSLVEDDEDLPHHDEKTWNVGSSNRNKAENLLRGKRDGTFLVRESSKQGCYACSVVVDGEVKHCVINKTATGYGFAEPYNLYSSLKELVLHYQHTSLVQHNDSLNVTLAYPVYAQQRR

SMILES	IC50
O=C(Nc1cc(Br)cc2c1C(c1cc(F)ccc1Cl)NC2=O)c1cc(F)ccc1F (stereo not drawn) [Compound I-793]	1 to 10 µM
N#CN1CC(Oc2cc(NC(=O)c3cc(F)cc(C(F)(F)F)c3)c3c(c2)C(=O)NC3c2cc(F)ccc2Cl)C1 (stereo not drawn) [Compound I-1205]	≤ 0.1 µM
O=C(Nc1cc(Br)cc2c1C(c1cc(F)ccc1Cl)NC2=O)c1ccc(F)c(C(F)(F)F)c1 (stereo not drawn) [Compound I-566]	0.5 to 1 µM
O=C1N[C@H](c2cc(F)ccc2Cl)c2c(Nc3nccc4c(C(F)(F)F)cc(F)cc34)cc(Br)cc21 [Compound I-1110]	1 to 10 µM
O=C(Nc1cc(Cl)cc2c1C(c1cc(F)ccc1Cl)NC2=O)c1cc(F)cc(C(F)(F)F)c1 (stereo not drawn) [Compound I-688]	≤ 0.1 µM
O=C(Nc1ccnc2c1C(c1ccccc1Cl)NC2=O)c1cc(F)cc(OC(F)(F)F)c1 (stereo not drawn) [Compound I-234]	1 to 10 µM
O=C1CC(c2cc(NC(=O)c3cc(F)cc(C(F)(F)F)c3)c3c(c2)C(=O)NC3c2cc(F)ccc2Cl)CN1 (stereo not drawn) [Compound I-1360]	≤ 0.1 µM
O=C1NC(c2cc(F)ccc2Cl)c2c(NC(=O)N3CCCC(C(F)(F)F)C3)cc(Br)cc21 (mixture of isomers) [Compound I-432]	0.5 to 1 µM
O=C(Nc1cc(-c2cnc(C3CC3)nc2)cc2c1C(c1cc(F)ccc1Cl)NC2=O)c1cc(F)cc(C(F)(F)F)c1 (stereo not drawn) [Compound I-822]	≤ 0.1 µM
Cc1ccccc1C1NC(=O)c2cccc(NC(=O)c3cc(Cl)n4ccccc34)c21 (stereo not drawn) [Compound I-69]	0.1 to 0.5 µM
COc1cnccc1-c1cc(NC(=O)c2cc(F)cc(Cl)c2)c2c(n1)C(=O)NC2c1cc(F)ccc1Cl (stereo not drawn) [Compound I-505]	0.1 to 0.5 µM
CC(=O)Cc1cc(NC(=O)c2cc(F)cc(C(F)(F)F)c2)c2c(c1)C(=O)NC2c1cc(F)ccc1C(F)F (stereo not drawn) [Compound I-620]	≤ 0.1 µM
O=C(Nc1cc(-c2cnc3nccn3c2)cc2c1C(c1cc(F)ccc1Cl)NC2=O)c1cc(F)cc(C(F)(F)F)c1 (stereo not drawn) [Compound I-825]	≤ 0.1 µM
O=C1NC(c2cc(F)ccc2Cl)c2c(NC(=O)c3cc(F)cc4cc[nH]c34)cc(Br)cc21 (stereo not drawn) [Compound I-711]	≤ 0.1 µM
O=C(Nc1cc(-c2ccc3ncnn3c2)cc2c1[C@@H](c1cc(F)ccc1Cl)NC2=O)c1cccc(C(F)(F)F)c1 (stereo in doubt) [Compound I-1116]	10 to 100 µM
O=C(Nc1cc(Br)cc2c1C(c1cc(F)ccc1Cl)NC2=O)c1cccc(F)c1 (stereo not drawn) [Compound I-526]	1 to 10 µM
CC(C)(O)COc1cc(NC(=O)c2cc(F)cc(Cl)c2)c2c(c1)C(=O)NC2c1cc(F)ccc1Cl (stereo not drawn) [Compound I-819]	≤ 0.1 µM
O=C1NC(c2cc(F)ccc2Cl)c2c(NC(=O)N3CCCc4ccc(Cl)cc43)cc(Br)cc21 (stereo not drawn) [Compound I-992]	1 to 10 µM
O=C(Nc1cc(Nc2cn[nH]c2)cc2c1[C@@H](c1cc(F)ccc1Cl)NC2=O)c1cc(F)cc(C(F)(F)F)c1 [Compound I-1259]	1 to 10 µM
CS(=O)(=O)Cc1cc(NC(=O)c2cc(F)cc(C(F)(F)F)c2)c2c(c1)C(=O)N[C@H]2c1cc(F)ccc1Cl [Compound I-618]	≤ 0.1 µM
CNC(=O)c1cc(NC(=O)c2csc3ccccc23)c2c(c1)C(=O)N[C@@H]2c1ccccc1C [Compound I-75, (R)-7-(Benzo[b]thiophene-3-carboxamido)-N-methyl-3-oxo-1-(o-tolyl)isoindoline-5-carboxamide]	1 to 10 µM
O=C(Nc1cccc2c1[C@@H](c1cc(F)ccc1Cl)NC2=O)c1cc(F)cc(C(F)(F)F)c1 [Compound I-860]	1 to 10 µM
CCn1cc(-c2cc(NC(=O)c3cc(F)cc(C(F)(F)F)c3)c3c(n2)C(=O)N[C@@H]3c2cc(F)ccc2Cl)ccc1=O [Compound I-614]	1 to 10 µM
O=C(Nc1cc(Br)cc2c1C(c1cc(F)ccc1Cl)NC2=O)Oc1ccc2c(n1)NCC2 (stereo not drawn) [Compound I-1206]	10 to 100 µM
Cn1ncc(Br)c1C(=O)Nc1cccc2c1C(c1cc(F)ccc1Cl)NC2=O (stereo not drawn) [Compound I-583]	10 to 100 µM
Cc1ccccc1C1NC(=O)c2cccc(NC(=O)c3cccc(C(F)(F)F)c3F)c21 (stereo not drawn) [Compound I-12]	10 to 100 µM
O=C(Nc1cc(Br)cc2c(=O)[nH]n(-c3cc(F)ccc3Cl)c12)c1cc(F)cc(C(F)(F)F)c1 [Compound I-752]	1 to 10 µM
Cc1ccccc1C1NC(=O)c2cccc(NC(=O)N3CCc4c(F)cc(F)cc43)c21 (stereo not drawn) [Compound I-104]	0.1 to 0.5 µM

Continued, values first:

IC50	SMILES
10 to 100 µM	O=C1N[C@H](c2cc(F)ccc2Cl)c2c(NC(=O)N3C[C@@H](CO)[C@H](C(F)(F)F)C3)cccc21 (single isomer, unassigned) [Compound I-2276]
1 to 10 µM	O=C1NC(c2cc(F)ccc2Cl)c2c(NC(=O)N3CC(CO)c4ccccc43)cccc21 (mixture of isomers) [Compound I-2314]
10 to 100 µM	CC(=O)N[C@@H]1CCC[C@H](C(=O)Nc2cc(-c3ccc4ncnn4c3)cc3c2C(c2cc(F)ccc2Cl)NC3=O)C1 (mixture of isomers) [Compound I-1842]
10 to 100 µM	O=C1N[C@H](c2cc(F)ccc2Cl)c2c(NC(=O)N3C[C@@H](O)c4cccc(F)c43)cccc21 (single isomer, unassigned) [Compound I-2208]
10 to 100 µM	CC(=O)N[C@H]1CCC[C@H](C(=O)Nc2cc(-c3ccc4ncnn4c3)cc3c2C(c2cc(F)ccc2Cl)NC3=O)C1 (mixture of isomers) [Compound I-1843]
0.5 to 1 µM	O=C1N[C@@H](c2cc(F)ccc2Cl)c2c(NC(=O)N3C[C@@](O)(C(F)(F)F)c4cc(F)ccc43)ccc(Cl)c21 (single isomer, unassigned) [Compound I-2621]
1 to 10 µM	O=C(Nc1cc(Br)cc2c1C(c1cc(F)cc(F)c1)NC2=O)c1cc(F)cc(F)c1 (stereo not drawn) [Compound I-2156]
0.5 to 1 µM	CN(C)S(=O)(=O)n1nccc1-c1cc(NC(=O)c2cc(F)cc(C(F)(F)F)c2)c2c(c1)C(=O)N[C@@H]2c1cc(F)ccc1Cl [Compound I-1598]
10 to 100 µM	O=C(Nc1cc(Br)cc2c1C(c1cc(F)ccc1Cl)NC2=O)NC1(CC(F)(F)F)CC1 (stereo not drawn) [Compound I-1755]
1 to 10 µM	COCc1cc(NC(=O)N2C[C@](O)(C(F)(F)F)c3cc(F)ccc32)c2c(c1)C(=O)N[C@@H]2c1cc(F)ccc1Cl (single isomer, unassigned) [Compound I-2542]
1 to 10 µM	N#CCc1cc(NC(=O)N2C[C@](O)(C(F)(F)F)c3cc(F)ccc32)c2c(c1)C(=O)N[C@H]2c1cc(F)ccc1Cl (single isomer, unassigned) [Compound I-2625]
0.5 to 1 µM	N#CCOc1cc(NC(=O)c2cc(F)cc(C(F)(F)F)c2)c2c(c1)C(=O)N[C@@H]2c1cc(F)ccc1Cl [Compound I-1887]
1 to 10 µM	Cc1cccc2c1CCN2C(=O)Nc1cccc2c1C(c1cc(F)ccc1Cl)NC2=O (stereo not drawn) [Compound I-2438]
1 to 10 µM	O=C(Nc1cc(-c2cn3ncnc3cc2F)cc2c1[C@@H](c1cc(F)ccc1Cl)NC2=O)c1cc(F)cc(C(F)(F)F)c1 (stereo in doubt) [Compound I-1701]
≤ 0.1 µM	O=C(Nc1cc(-c2cc(F)c3ncnn3c2)cc2c1C(c1cc(F)ccc1Cl)NC2=O)c1cc(F)cc(C(F)(F)F)c1 (stereo not drawn) [Compound I-1653]
1 to 10 µM	CNc1cc(NC(=O)N2C[C@@](O)(C(F)(F)F)c3cc(F)ccc32)c2c(c1C#N)C(=O)N[C@@H]2c1cc(F)ccc1Cl (single isomer, unassigned) [Compound I-2607]
10 to 100 µM	O=C1NC(c2cc(F)ccc2Cl)c2c(NC(=O)N3CC4C5CCC(C5)C43)cccc21 (stereo not drawn) [Compound I-2429]
